Laboratory results: patent publication US5610310A, “Cyclic lipid derivatives as potent PAF antagonists” (Pohang Iron & Steel Co., Ltd, priority 1995, dated 1997)

Key:
[1] = test system: PAF-induced [^14 C]-serotonin release, rabbit platelets; assay: Inhibitory action on PAF-induced [^14 C]-serotonin release; format: cell-based, rabbit (New Zealand white); settings: Oryctolagus cuniculus, Platelet, PAF 1×10^-9 M; for inhibition at 0.2 µM: test compound 2 × 10^-7 M; for inhibition at 0.05 µM: test compound 5 × 10^-8 M; for inhibition at 0.005 µM: test compound 5 × 10^-9 M
Method: Inhibitory action on PAF-induced [^14 C]-serotonin release
Blood was collected from the hearts of conscious New Zealand white male rabbits weighing 2 to 3 kg. The blood was immediately subjected to a centrifuge at 1400 rpm for 10 minutes to obtain platelet rich plasma(PRP).PRP was incubated with a trace mount of [^14 C]-serotonin for 20 minutes at 22° C. Prelabelled platelets were prepared by centrifugation at 3500 rpm for 10 minutes. The test compound was added to 80 μl of [^14 C] serotonin-labeled platelets in plastic test tubes, and the mixture was incubated for 2 minutes. PAF (1×10^-9 M) was then added to the reaction mixture and incubated for additional 2 minutes at which time 10 μl of cold formaldehyde was added to stop the reactions. The tubes were immediately cooled to 4° C. and centrifuged at 12000 rpm for 2 minutes. The supernatants (80 μl) were assayed for percentage of [^14 C] serotonin release by the conventional methods of measuring ^14 C counts.

[2] = test system: PAF-induced platelet aggregation, rabbit platelet-rich plasma; assay: Inhibitory action on PAF-induced platelet aggregation; format: cell-based, rabbit (New Zealand white); settings: Oryctolagus cuniculus, rabbit PRP, PAF 5×10^-9 M, 37° C.
Method: Inhibitory action on PAF-induced platelet aggregation Blood was collected from the […] of conscious New Zealand white male rabbits weighing 2 to 3 kg using citric acid as an anticoagulant (one volume pan of 3% citric acid relative to 9 volume parts of the whole blood). […] PRP was diluted with PPP to adjust the number of platelets to about 3×10^5 /μl. […] Platelet aggregation was then examined by means of turbidimetry [Born, Nature, 194, 927(1962)] with dual channel aggegometer (Chrono-Log. Corp., Havertown, Pa.). As the control, physiological saline without test sample was used. The platelet aggregation inhibiting activities of the test sample are expressed as IC50, that is the concentration of the compound at which 50% of the aggregation is inhibited.

[3] = target: T1, PAF receptor (rabbit platelet membranes) (Oryctolagus cuniculus, UniProt G1TEI7); assay: PAF Receptor Binding Assay; settings: 0.6 nM [^3 H]C18 -PAF, 60 minutes, room temperature, calculated as IC50/2
T1 construct: Rabbit platelets were prepared by centrifugation and washing; tissue Pel-Freez (Rogers, AR); host or cells: rabbit platelets (washed, from citrated whole blood; lysed membranes)
T1 sequence (G1TEI7 1-342): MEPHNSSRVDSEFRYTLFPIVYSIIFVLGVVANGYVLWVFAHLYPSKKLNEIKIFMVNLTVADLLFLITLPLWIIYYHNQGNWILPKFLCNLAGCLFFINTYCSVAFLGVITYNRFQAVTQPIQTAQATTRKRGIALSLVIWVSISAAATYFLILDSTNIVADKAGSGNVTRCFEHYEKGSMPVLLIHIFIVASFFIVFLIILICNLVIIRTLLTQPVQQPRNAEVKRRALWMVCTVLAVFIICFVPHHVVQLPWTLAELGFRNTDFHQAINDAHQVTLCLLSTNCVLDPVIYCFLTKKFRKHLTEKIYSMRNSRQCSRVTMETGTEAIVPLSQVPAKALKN
Method: PAF Receptor Binding Assay Citrated whole rabbit blood was obtained from Pel-Freez(Rogers, AR). Rabbit platelets were prepared by centrifugation and washing. The platelets were lysed by freeze-thawing and sonification; Platelet membranes were prepared by centrifugation and washing. Final membrane preparation were stored frozen in 10 mM Tris/5 mM MgCl2 /2 mM EDTA (TME buffer, pH 7.0) with 0.25M sucrose added for membrane stabilization. […] The final volume of the assay was 100 μl. […] The […] and removed. The bound radioactivity was quantitated with a Berthold TLC-Linear Analyzer model LB2842. […] Experiments were repeated at least once. […] Ki values of inhibitory binding constants were calculated according to the methods of the literature[Cheng et al., Biochem.

IC50 [2] [nM]	Ki [3] [nM]	Compound	inhibition at 0.2 µM [1] [%]	inhibition at 0.05 µM [1] [%]	inhibition at 0.005 µM [1] [%]
61	9.8	CCCCCCCCCCCCCCCCCCNC(=O)OC[C@@H]1C[C@H](COC(=O)N(Cc2cccc[n+]2CC)C(C)=O)S1 (relative stereo) [Example 28, cis-2-[[N-Acetyl-N-[[[4-[[(octadecylcarbamoyl)oxy]methyl]-2-thietanyl]methoxy]carbonyl]amino]methyl]-1-ethyl-pyridinium chloride]	–	–	–
–	–	CCCCCCCCCCCCCCCCCCNC(=O)OCC1(COC(=O)CCCCC[n+]2ccccc2)COC1 [Example 12, N-[5-[[[3-[[(Octadecylcarbamoyl)oxy]methyl]-3-oxetanyl]methoxy]carbonyl]pentyl]pyridinium bromide]	94	58	–
–	–	CCCCCCCCCCCCCCCCOCC1(COC(=O)CCCCC[n+]2ccccc2)COC1 [Example 10, N-[5-[[[3-[(Hexadecyloxy)methyl]-3-oxetanyl]methoxy]carbonyl]pentyl]pyridinium bromide]	86	43	–
–	–	CCCCCCCCCCCCCCCCCCNC(=O)OC[C@@H]1C[C@H](COC(=O)N(Cc2cccc[n+]2CC)C(C)=O)O1 (relative stereo) [Example 3, cis-2-[[N-Acetyl-N-[[[4-[[(octadecylcarbamoyl)oxy]methyl]-2-oxetanyl]methoxy]carbonyl]amino]methyl]-1-ethyl-pyridinium iodide]	97	–	58
93	95	CCCCCCCCCCCCCCCCNC(=O)OCC1(COC(=O)N(Cc2cccc[n+]2CC)C(C)=O)COC1 [Example 8, 2-[[N-Acetyl-N-[[[3-[[(hexadecylcarbamoyl)oxy]methyl]-3-oxetanyl]methoxy]carbonyl]amino]methyl]-1-ethyl-pyridinium iodide]	–	–	–
125	9.3	CCCCCCCCCCCCCCCCCCNC(=O)OCC1(COC(=O)N(Cc2cccc[n+]2CC)C(C)=O)C[S+]([O-])C1 (centres unmarked) [Example 37, 2-[[N-Acetyl-N-[[[3-[[(octadecylcarbamoyl)oxy]methyl]thietane 1-oxide-3-yl]methoxy]carbonyl]amino]methyl]-1-ethyl-pyridinium iodide]	–	–	–
350	1.2	CCCCCCCCCCCCCCCCNC(=O)OCC1(COC(=O)N(Cc2cccc[n+]2CC)C(C)=O)CCCC1 [Example 20, 2-[[N-Acetyl-N-[[[1-[[(hexadecylcarbamoyl)oxy]methyl]-1-cyclopentyl]methoxy]carbonyl]amino]methyl]-1-ethyl-pyridinium iodide]	–	–	–
95	9.4	CCCCCCCCCCCCCCCCCCNC(=O)OCC1(COC(=O)CCCC[n+]2cccc3ccccc32)CCCC1 [Example 23, N-[4-[[[1-[[(Octadecylcarbamoyl)oxy]methyl]1-cyclopentyl]methoxy]carbonyl]butyl]quinolinium bromide]	–	–	–
178	278	CCCCCCCCCCCCCCCCCCNC(=O)OCC1(COC(=O)N(Cc2cccc[n+]2CC)C(C)=O)CS(=O)(=O)C1 [Example 38, 2-[[N-Acetyl-N-[[[3-[[(octadecylcarbamoyl)oxy]methyl]thietane 1,1-dioxide-3-yl]methoxy]carbonyl]amino]methyl]-1-ethyl-pyridinium iodide]	–	–	–
52	20	CCCCCCCCCCCCCCCCOC[C@H]1C[C@H](COC(=O)N(Cc2cccc[n+]2CC)C(C)=O)S1 (relative stereo) [Example 32, trans-2-[[N-Acetyl-N-[[[4-[(hexadecyloxy)methyl]-2-thietanyl]methoxy]carbonyl]amino]methyl]-1-ethyl-pyridinium chloride]	–	–	–
–	–	CCCCCCCCCCCCCCCCCCNC(=O)OC[C@H]1C[C@H](COC(=O)N(Cc2cccc[n+]2CC)C(C)=O)O1 (relative stereo) [Example 5, trans-2-[[N-Acetyl-N-[[[4-[[(octadecylcarbamoyl)oxy]methyl]-2-oxetanyl]methoxy]carbonyl]amino]methyl]-1-ethyl-pyridinium iodide]	97	–	–
29	35	CCCCCCCCCCCCCCCCCCNC(=O)OC[C@@H]1C[C@@H](COC(=O)N(Cc2cccc[n+]2CC)C(C)=O)N1C(C)=O (relative stereo) [Example 43, 2-[[N-Acetyl-N-[[[4-[[(octadecylcarbamoyl)oxy]methyl]-1-acetylazetidine-2-yl]methoxy]carbonyl]amino]methyl]-1-ethyl-pyridinium chloride]	–	–	–
–	–	CCCCCCCCCCCCCCCCCCNC(=O)OCC1(COC(=O)N(Cc2cccc[n+]2CC)C(C)=O)COC1 [Example 6, 2-[[N-Acetyl-N-[[[3-[[(octadecylcarbamoyl)oxy]methyl]-3-oxetanyl]methoxy]carbonyl]amino]methyl]-1-ethyl-pyridinium iodide]	98	96	–

Compound	IC50 [2] [nM]	Ki [3] [nM]	inhibition at 0.2 µM [1] [%]	inhibition at 0.05 µM [1] [%]	inhibition at 0.005 µM [1] [%]
CCCCCCCCCCCCCCCCOC[C@H]1C[C@H](COC(=O)N(Cc2cccc[n+]2CC)C(C)=O)O1 (relative stereo) [Example 2, trans-2-[[N-Acetyl-N-[[[4-[(hexadecyloxy)methyl]-2-oxetanyl]methoxy]carbonyl]amino]methyl]-1-ethyl-pyridinium iodide]	57	14.7	98	93	44
CCCCCCCCCCCCCCCCCCNC(=O)OCC1(COC(=O)N(Cc2cccc[n+]2CC)C(C)=O)CCC1 [Example 14, 2-[[N-Acetyl-N-[[[1-[[(octadecylcarbamoyl)oxy]methyl]-1-cyclobutyl]methoxy]carbonyl]amino]methyl]-1-ethyl-pyridinium iodide]	118	6.6	99	98	18
CCCCCCCCCCCCCCCCCCNC(=O)OCC1(COC(=O)CCCCC[n+]2ccsc2)COC1 [Example 13, 3-[5-[[[3-[[(Octadecylcarbamoyl)oxy]methyl]-3-oxetanyl]methoxy]carbonyl]pentyl]thiazolium bromide]	382	30.5	92	–	–
CCCCCCCCCCCCCCCCOC[C@H]1C[C@@H](COC(=O)N(Cc2cccc[n+]2CC)C(C)=O)O1 (relative stereo) [Example 1, cis-2-[[N-Acetyl-N-[[[2-[(hexadecyloxy)methyl]-4-oxetanyl]methoxy]carbonyl]amino]methyl]-1-ethyl-pyridinium iodide]	95	21.2	–	51	–
